Two molecules from article PMC7906330 (PLoS ONE, 2021) can be followed below.

In one data set the test system is trypsin. The data set can be described thus: in vitro. The conditions noted are these: isolated enzyme trypsin, pH 8.5.
The conditions of data set [1]: pH 7.

SMILES strings stand for the structures.

Usually half-life stands for how long it takes for the measured level to halve. Low readings indicate fast loss, high ones slow loss. With `CC[C@H](C)[C@H](NC(=O)[C@H](CC(C)C)NC(=O)[C@H](Cc1ccccc1)NC(=O)[C@H](CCC(N)=O)NC(=O)[C@H](CC(C)C)NC(=O)[C@H](CCCCN)NC(=O)CNC(=O)[C@H](Cc1ccc(O)cc1)NC(=O)[C@@H]1CCCN1C(=O)[C@@H](NC(=O)[C@@H]1CCCN1C(=O)[C@H](Cc1ccc(O)cc1)NC(=O)CNC(=O)[C@H](CCCCN)NC(=O)[C@H](Cc1c[nH]c2ccccc12)NC(=O)[C@@H]1CCCN1C(=O)CN)[C@@H](C)CC)C(=O)N[C@@H](CCCCN)C(=O)N[C@@H](CCCCN)C(=O)N[C@@H](CC(C)C)C(=O)N[C@@H](CCCCN)C(=O)N[C@@H](CCC(N)=O)C(=O)N[C@@H](CC(C)C)C(=O)N[C@@H](CCCCN)C(=O)N[C@H](C(N)=O)C(C)C` [Peptide M49dN], the half-life with trypsin came to 5 ± 0.3 min. The “α-helical structure / structural stability by CD” value in data set [1] is reported as “no α-helical structure”.

For `CC[C@H](C)[C@H](NC(=O)[C@H](CC(C)C)NC(=O)[C@H](Cc1ccccc1)NC(=O)[C@H](CCC(N)=O)NC(=O)[C@H](CC(C)C)NC(=O)[C@H](CCCCN)NC(=O)CNC(=O)[C@H](Cc1ccc(O)cc1)NC(=O)[C@@H]1CCCN1C(=O)[C@@H](NC(=O)[C@@H]1CCCN1C(=O)[C@H](Cc1ccc(O)cc1)NC(=O)CNC(=O)[C@H](CCCCN)NC(=O)[C@H](Cc1c[nH]c2ccccc12)NC(=O)[C@@H]1CCCN1C(=O)CNC(=O)[C@H](CCC(=O)O)NC(=O)[C@H](CC(C)C)NC(=O)[C@H](C)NC(=O)[C@H](C)NC(=O)[C@H](CC(C)C)NC(=O)[C@H](CCC(=O)O)NC(=O)[C@H](C)NC(=O)[C@H](CCC(=O)O)NC(=O)[C@H](CC(C)C)NC(=O)[C@H](C)NC(=O)[C@H](C)NC(=O)[C@H](CC(C)C)NC(=O)[C@H](CCC(=O)O)NC(=O)[C@H](C)N)[C@@H](C)CC)C(=O)N[C@@H](CCCCN)C(=O)N[C@@H](CCCCN)C(=O)N[C@@H](CC(C)C)C(=O)N[C@@H](CCCCN)C(=O)N[C@@H](CCC(N)=O)C(=O)N[C@@H](CC(C)C)C(=O)N[C@@H](CCCCN)C(=O)N[C@H](C(N)=O)C(C)C` [Peptide M49dS], the half-life in the data set on trypsin stood at 39 ± 2 min. Also, the “α-helical structure / structural stability by CD” value in data set [1] is “mostly denatured at 80 °C”.
